Experimental data: article PMC5735979, “Total Coumarins from Hydrangea paniculata Show Renal Protective Effects in Lipopolysaccharide-Induced Acute Kidney Injury via Anti-inflammatory and Antioxidant Activities” (Frontiers in Pharmacology, 2017)

Legend:
Format in all cases: in vivo, C57BL/6 mice
[1] = Pharmacokinetics study after single oral dose of HP; settings: for Blood drug concentration: 12 h after single oral dose of 50 mg/kg HP; for Blood drug concentration / concentration at 0.08 h / concentration at 0.25 h / concentration at 0.5 h / concentration at 1 h / concentration at 1.5 h / concentration at 2 h / concentration at 3 h / concentration at 4 h / concentration at 8 h / half-life / AUC(0-inf) / AUC(0-t) / Cmax / Tmax / MRT last / MRT inf: mice, n = 5; for Blood drug concentration / concentration at 0.08 h / concentration at 0.25 h / concentration at 0.5 h / concentration at 1 h / concentration at 1.5 h / concentration at 2 h / concentration at 3 h / concentration at 4 h / concentration at 8 h: mean ± SD; for concentration at 0.08 h / concentration at 0.25 h / concentration at 0.5 h / concentration at 1 h / concentration at 1.5 h / concentration at 2 h / concentration at 3 h / concentration at 4 h / concentration at 8 h / half-life / AUC(0-inf) / AUC(0-t) / Cmax / Tmax / MRT last / MRT inf: male, C57BL/6, mouse, plasma; for concentration at 0.08 h: 0.08 h after single oral dose of 50 mg/kg HP; for concentration at 0.08 h / concentration at 0.25 h / concentration at 0.5 h / concentration at 1 h / concentration at 1.5 h / concentration at 2 h / concentration at 3 h / concentration at 4 h / concentration at 8 h: read-out: Blood drug concentration; for concentration at 0.25 h: 0.25 h after single oral dose of 50 mg/kg HP; for concentration at 0.5 h: 0.5 h after single oral dose of 50 mg/kg HP; for concentration at 1 h: 1 h after single oral dose of 50 mg/kg HP; for concentration at 1.5 h: 1.5 h after single oral dose of 50 mg/kg HP; for concentration at 2 h: 2 h after single oral dose of 50 mg/kg HP; for concentration at 3 h: 3 h after single oral dose of 50 mg/kg HP; for concentration at 4 h: 4 h after single oral dose of 50 mg/kg HP; for concentration at 8 h: 8 h after single oral dose of 50 mg/kg HP; for half-life: elimination half-life; for half-life / AUC(0-inf) / AUC(0-t) / Cmax / Tmax / MRT last / MRT inf: single oral dose of 50 mg/kg HP; for MRT last: read-out: MRT(0−t); for MRT inf: read-out: MRT(0−∞)
Procedure: All of the animals were fasted for 12 h before receiving HP and were then allowed to eat for 4 h after administration. The dosing solutions used for the animal studies were prepared by dissolving the required amounts of HP in distilled water. […] The plasma was separated and stored at 2–8°C until analysis. […] Louis, MO, USA) and then mixed with 180 μL of acetonitrile (Merck, Darmstadt, Germany) to precipitate protein. After centrifugation, aliquots (10 μL each) of the supernatant were used for analysis. […] The mobile phase consisted of solvent A [0.1% formic acid (Dikma Technologies, Inc., CA, USA) in water] and solvent B [0.1% formic acid in methanol (Merck)]. The analytes were eluted at a flow rate of 0.2 mL/min, with the following gradient elution: from 0 to 0.6 min, 20% B; linear increase to 95% B in 0.2 min; 95% B for 4 min, decrease to 20% B in 0.2 min; and stabilization at initial conditions for 6 min. The mass spectrometer was set for multiple reaction monitoring and was operated in a positive-ion mode with an electrospray ionization source. Nitrogen was used as the curtain gas and the collision gas. The ion-spray voltage was set at 5,500 V, and the gas temperature at 500°C.

[2] = system: peripheral blood leukocytes; assay: Peripheral blood leukocyte counts after LPS injection; settings: LPS i.p. injection
Procedure: To understand the effect of HP on peripheral leukocytes in LPS-induced septic mice, peripheral […] was collected in heparin pretreated tubes by retro-orbital bleeding at 4, 8, 12, 24, and 48 h post-LPS injection, and the number of monocytes, lymphocytes, and neutrophils in the […] at different time points was examined by an Automatic Hematology Analyzer (Celltac E MEK-7222, Nihon Kohden, Japan). The detailed experimental procedure is shown in Figure 1C, which is similar to that used to analyze the effect of HP treatment on LPS-induced AKI.

[3] = system: caspase 3, 7, 8, 9 in kidney tissue; assay: Tubular cell apoptosis and caspases in LPS-challenged kidneys (IHC, RT-qPCR, western blot); settings: MMF 10 mg/kg; magnitude less than HP at 40 mg/kg
Procedure: LPS from Escherichia coli 0111:B4 was purchased from Sigma-Aldrich (St. Louis, MO, USA), and freshly dissolved in sterile 0.9% NaCl solution buffer before i.p. injection. For the standard treatment experiment, low dosage of LPS was used for induction of kidney injury. Inbred, 16–18 g, 4–6-week-old, male C57BL/6 mice were purchased from the SPF Biotechnology Co. Ltd. (Beijing, China). The sham group received 10 mL/kg saline by oral gavagedaily during the experiment, and at day 3 received a saline sham injection (i.p.). The LPS model group was exposed to the same procedure as the sham group, except receiving an LPS (20 mg/kg) injection (i.p.) at day 3, instead of saline. […]
For cleaved caspase 3 immunohistochemical analysis, the endogenous peroxidase activity in each section was quenched with 3% H2O2. […] Labelling was detected with a biotin-conjugated goat anti-rabbit IgG and avidin-biotin peroxidase complex. Cleaved caspase-3-positive cells in cortexes were scored in 30 random × 400 high-power fields (HPFs) with a ZEISS Observer A1 microscope (ZEISS, Germany).
The mRNA levels of selected important chemokines and cytokines in the kidneys, such as TNF-α, IL-1β, IL-6, intercellular adhesion molecule 1 (ICAM-1), vascular cell adhesion molecule 1 (VCAM-1), and MCP-1, as well as caspase family members, such as caspase 3, caspase 7, caspase 8, and caspase 9, were quantified by RT-qPCR. […]

[4] = system: macrophages and neutrophils in kidneys; assay: Flow cytometric determination of kidney leukocytes; settings: LPS-induced AKI mice, flow cytometry, N = 8
Procedure: To determine the effect of HP on leukocyte populations in septic kidneys, kidney single-cell suspensions were prepared and analyzed. Briefly, the single-cell suspensions were first incubated with anti-mouse CD45-APC-Cy7 antibody (eBioscience, USA) for 30 min on ice. After washing, the cells were stained for 15 min on ice with fluorochrome-labeled monoclonal antibodies against anti-mouse Ly6G-PE, CD11c-FITC, or F4/80-APC (eBioscience, USA) for detection of neutrophils or macrophages. Six-color fluorescence flow cytometric analyses were performed (FACS Verse, BD, USA), and the data were analyzed with the FlowJo program (Tree Star, Inc., Ashland, CA, USA).

Structure (SMILES)	Blood drug concentration [1]	concentration at 0.08 h [1] [nM]	concentration at 0.25 h [1] [nM]	concentration at 0.5 h [1] [nM]	concentration at 1 h [1] [nM]	concentration at 1.5 h [1] [nM]	concentration at 2 h [1] [nM]	concentration at 3 h [1] [nM]	concentration at 4 h [1] [nM]	concentration at 8 h [1] [nM]	half-life [1] [h]	AUC(0-inf) [1] [µM·h]	AUC(0-t) [1] [µM·h]	Cmax [1] [nM]	Tmax [1] [h]	MRT last [1] [h]	MRT inf [1] [h]	also measured
O=c1ccc2ccc(O)cc2o1 [Umbelliferone, umbelliferone]	Not detectable	4210 ± 2210	9120 ± 3280	7350 ± 2040	3360 ± 760	2060 ± 790	1450 ± 790	1100 ± 1300	590 ± 170	140 ± 140	1.69	12.2	11.8	9120	0.25	1.58	1.82	–
O=c1ccc2ccc(O[C@@H]3O[C@H](CO[C@@H]4OC[C@](O)(CO)[C@H]4O)[C@@H](O)[C@H](O)[C@H]3O)cc2o1 [apiosylskimmin]	–	–	–	–	–	–	–	–	–	–	–	–	–	–	–	–	–	concentration of plasma apiosylskimmin ([1]; mouse, in vivo, po, 50 mg/kg): too low to be determined
O=c1ccc2cc(O)c(O)cc2o1 [Esculetin, esculetin]	Not detectable	980 ± 800	2980 ± 1240	3000 ± 1050	2240 ± 400	2250 ± 1590	650 ± 220	680 ± 880	300 ± 160	120 ± 10	2.3	6.66	6.27	3000	0.5	1.82	2.38	–
COc1c(C)c2c(c(O)c1C/C=C(\C)CCC(=O)OCCN1CCOCC1)C(=O)OC2 [MMF, Mycophenolate mofetil]	–	–	–	–	–	–	–	–	–	–	–	–	–	–	–	–	–	peripheral blood monocytes at 48 h after LPS ([2]; HP 40 mg/kg, MMF 10 mg/kg, N = 8): significantly reduced peripheral blood monocytes; peripheral blood counts within the first 24 h after LPS ([2]; data not shown): did not change the peripheral blood counts; tubular apoptosis in LPS-induced AKI [3]: ameliorated tubular apoptosis; infiltration of CD45+ F4/80+ CD11c+ macrophages and CD45+Ly6G+ neutrophils into kidneys [4]: produced similar inhibitory results
